Assay results: patent US5114919A, “Adjuncts in cancer chemotherapy” (Merck & Co., Inc., priority 1991, dated 1992)

Tests used:
[1] = tested on: KB-V-1 drug-resistant cell line; test: [3H]vinblastine accumulation assay in KB-V-1 drug-resistant cells; format: cell-based, human; conditions: for Accumulation of [3H]vinblastine, KB-V-1, drug preincubated (60 min): Table 2
Description: (§1) Radiolabelled compounds may also be utilized to determine the accumulation of antitumor chemotherapeutic agents in drug sensitive cells and in multidrug resistant cells. For example, the accumulation of [^3 H]vinblastine by drug sensitive cell lines and drug resistant cell lines in the presence or absence of a test compound may be determined. The relative accumulation of the radiolabelled chemotherapeutic agent is indicative of the ability of a compound to reverse multidrug resistance.
(§2) Drug Accumulation: Measurement of the accumulation of [^3 H] vinblastine in a KB-3 drug-sensitive cell line and a KB-V-1 drug-resistantcell line was performed at 37° C. in serum-free medium (DMEM). Cell monolayers were grown in 24 well dishes. [^3 H] vinblastine and different compounds (20 μM) were added to cells incubated for 30 minutes, monolayers were washed later, and drug accumulation per mg protein was assayed.

[2] = tested on: KB-3 drug-sensitive cell line; test: [3H]vinblastine accumulation assay in KB-3 drug-sensitive cells; format: cell-based, human; conditions: 37° C., serum-free DMEM; for Accumulation of [3H]vinblastine, KB-3: Table 1, compound 20 μM, 30 minutes; for Accumulation of [3H]vinblastine, KB-3, drug preincubated (60 min): Table 2, drug preincubated 60 min, compound 20 μM
Description: as §1, §2

[3] = compound 20 μM, 37° C., serum-free DMEM, drug-resistant cells
[4] = Table 1, compound 20 μM, 30 minutes, 37° C., serum-free DMEM, drug-resistant cells

COc1cc(C(=O)NCc2ccc3c(c2)C(=C2CCN(C)CC2)c2ccccc2C=C3)cc(OC)c1OC [3,4,5-Trimethoxy-N-((5-(1-methyl-4-piperidinylidene)-5H-dibenzo[a,d]cyclohepten-3-yl)methyl)benzamide]
Accumulation of [3H]vinblastine, KB-V-1 ([1]; 20 µM): 3.31 ± 0.25 pmole/mg protein | Accumulation of [3H]vinblastine, KB-V-1, drug preincubated (60 min) [1, 3]: 3.57 ± 0.16 pmole/mg protein | Accumulation of [3H]vinblastine, KB-3 [2]: 8.15 ± 0.44 pmole/mg protein | Accumulation of [3H]vinblastine, KB-3, drug preincubated (60 min) [2]: 3.67 ± 0.32 pmole/mg protein

COc1ccc(CCN(C)CCCC(C#N)(c2ccc(OC)c(OC)c2)C(C)C)cc1OC (stereo not drawn) [Verapamil, reference compound]
Accumulation of [3H]vinblastine, KB-V-1 [1, 4]: 2.21 ± 0.18 pmole/mg protein | Accumulation of [3H]vinblastine, KB-V-1, drug preincubated (60 min) [1, 3]: 2.36 ± 0.21 pmole/mg protein | Accumulation of [3H]vinblastine, KB-3 [2]: 4.65 ± 0.13 pmole/mg protein | Accumulation of [3H]vinblastine, KB-3, drug preincubated (60 min) [2]: 4.71 ± 0.25 pmole/mg protein

Ic1ccc2c(c1)C(=C1CCN(CC3CC3)CC1)c1ccccc1C=C2 [(+)-1-cyclopropylmethyl-4-(3-iodo-5H-dibenzo[a,d]cyclohepten-5-ylidene)piperidine]
Accumulation of [3H]vinblastine, KB-V-1 [1, 4]: 2.91 ± 0.25 pmole/mg protein | Accumulation of [3H]vinblastine, KB-3 [2]: 7.35 ± 0.18 pmole/mg protein

FC(F)(F)Sc1ccc2c(c1)C(=C1CCN(CC3CC3)CC1)c1ccccc1C=C2 [(-)-1-cyclopropylmethyl-4-(3-trifluoromethylthio-5H-dibenzo[a,d]cyclohepten-5-ylidene)piperidine]
Accumulation of [3H]vinblastine, KB-V-1 [1, 4]: 0.91 ± 0.04 pmole/mg protein | Accumulation of [3H]vinblastine, KB-V-1, drug preincubated (60 min) [1, 3]: 1.85 ± 0.11 pmole/mg protein | Accumulation of [3H]vinblastine, KB-3 [2]: 11.65 ± 0.11 pmole/mg protein | Accumulation of [3H]vinblastine, KB-3, drug preincubated (60 min) [2]: 10.16 ± 0.41 pmole/mg protein

COc1cc(N)c(Cl)cc1C(=O)NCc1ccc2c(c1)C(=C1CCN(C)CC1)c1ccccc1C=C2 [4-Amino-5-chloro-2-methoxy-N-((5-(1-methyl-4-piperidinylidene)-5H-dibenzo[a,d]cyclohepten-3-yl)methyl)benzamide]
Accumulation of [3H]vinblastine, KB-V-1 [1, 4]: 3.47 ± 0.26 pmole/mg protein | Accumulation of [3H]vinblastine, KB-3 [2]: 3.47 ± 0.15 pmole/mg protein

CCOC(=O)C1=C(C)NC(C)=C(C(=O)OCC)C1c1ccc2c(c1)C(=C1CCN(C)CC1)c1ccccc1C=C2 [Diethyl 1,4-dihydro-2,6-dimethyl-4-(5-(1-methyl-4-piperidinylidene)-5H-dibenzo[a,d]cyclohepten-3-yl)pyridine dicarboxylate]
Accumulation of [3H]vinblastine, KB-V-1 [1, 4]: 2.13 ± 0.15 pmole/mg protein | Accumulation of [3H]vinblastine, KB-3 [2]: 3.32 ± 0.09 pmole/mg protein
